Columns and labels:
[1] = test system: primary pancreatic tumor cell line pp109; assay: Cell number from phase contrast images, pp109; type: cell-based
Experimental: (§1) All materials for cell culture and determination of cell growth and death were detailed in earlier publications. [Blum, R., Jacob-Hirsch, J., Amariglio, N., Rechavi, G. and Kloog, Y., Cancer Res 65:999-1006 (2005); Yaari, S., Jacob-Hirsch, J., Amariglio, N., Haklai, R., Rechavi, G. and Kloog, Y., Clin Cancer Res 11:4321-30 (2005)]. FTS was provided by Concordia Pharmaceuticals, Inc. 2DG was purchased from Sigma (cat #D3179). Cells were maintained in DMEM/10% FCS at a constant temperature of 37° C. in a humidified atmosphere of 95% air/5% CO2. Cells were plated in 1 ml DMEM/5% FCS at a density of 10,000 in 24 wells plates, and treated 24 hours (h) later with 50 μM or 75 μM FTS or with the vehicle (0.1% Me2SO). […] Following incubation for 24 or 48 h, as specified in each experiment, the cells were stained with Hoechst 33258 (1 μg/mL) to determine the extent of cell death; the cells were incubated with the reagent for 5 min and stained nuclei were visualized by a fluorescence microscope. […]
(§2) All experiments were performed and repeated at least four times. Data were collected by imaging each well then analyzed as follows: the total number of cells was calculated of the phase contrast images and the number of dead cells was calculated of the fluorescence images. The percentage of Hoechst stained dead cells ([dead cells/total number of cells]×100) was calculated and presented as means±SD.

[2] = test system: primary pancreatic tumor cell line pp109; assay: Cell death by Hoechst 33258 staining, pp109; type: cell-based; conditions: single-drug or combined treatment
Experimental: (§3) All materials for cell culture and determination of cell growth and death were detailed in earlier publications. [Blum, R., Jacob-[…]. and Kloog, Y., Cancer Res 65:999-1006 (2005); […]., Jacob-[…]. and Kloog, Y., Clin Cancer Res 11:4321-30 (2005)]. FTS was provided by Concordia Pharmaceuticals, Inc. 2DG was purchased from Sigma (cat #D3179). Cells were maintained in DMEM/10% FCS at a constant temperature of 37° C. in a humidified atmosphere of 95% air/5% CO2. Cells were plated in 1 ml DMEM/5% FCS at a density of 10,000 in 24 wells plates, and treated 24 hours (h) later with 50 μM or 75 μM FTS or with the vehicle (0.1% Me2SO). Forty-eight (48) h later the medium was replaced by a medium containing either 10 mM glucose or 5 mM glucose plus 5 mM 2DG. […] Following incubation for 24 or 48 h, as specified in each experiment, the cells were stained with Hoechst 33258 (1 μg/mL) to determine the extent of cell death; the cells were incubated with the reagent for 5 min and stained nuclei were visualized by a fluorescence microscope. […] Data were collected by imaging each well then analyzed as follows: the total number of cells was calculated of the phase contrast images and the number of dead cells was calculated of the fluorescence images. The percentage of Hoechst stained dead cells ([dead cells/total number of cells]×100) was calculated and presented as means±SD.

[3] = test system: primary pancreatic tumor cell line pp 78; assay: Cell death by Hoechst 33258 staining, pp 78; type: cell-based; conditions: single-drug or combined treatment
Experimental: as §3

[4] = test system: primary pancreatic tumor cell line pp161; assay: Cell death by Hoechst 33258 staining, pp161; type: cell-based; conditions: single-drug or combined treatment
Experimental: as §3

[5] = test system: human glioblastoma cell line U87; assay: Cell death by Hoechst 33258 staining, U87; type: cell-based; conditions: single or combined treatment
Experimental: as §3

[6] = test system: primary pancreatic tumor cell line pp 78; assay: Cell number from phase contrast images, pp 78; type: cell-based
Experimental: as §1, §2

[7] = test system: primary pancreatic tumor cell line pp161; assay: Cell number from phase contrast images, pp161; type: cell-based
Experimental: as §1, §2

[8] = test system: human glioblastoma cell line U87; assay: Cell number from phase contrast images, U87; type: cell-based; conditions: single or combined treatment
Experimental: as §3

[9] = test system: pancreatic carcinoma cell line panc-1; assay: Cell number from phase contrast images, panc-1; type: cell-based
Experimental: as §1, §2

[10] = test system: human glioblastoma cell line U373; assay: Cell number from phase contrast images, U373; type: cell-based; conditions: single or combined treatment
Experimental: as §3

[11] = test system: human glioblastoma cell line U373; assay: Cell death by Hoechst 33258 staining, U373; type: cell-based; conditions: single or combined treatment
Experimental: as §3

[12] = test system: pancreatic carcinoma cell line panc-1; assay: Cell death by Hoechst 33258 staining, panc-1; type: cell-based; conditions: for percentage of dead cells: panc-1
Experimental: All materials for cell culture and determination of cell growth and death were detailed in earlier publications. [Blum, R., Jacob-[…]. and Kloog, Y., Cancer Res 65:999-1006 (2005); […]., Jacob-[…]. and Kloog, Y., Clin Cancer Res 11:4321-30 (2005)]. FTS was provided by Concordia Pharmaceuticals, Inc. 2DG was purchased from Sigma (cat #D3179). Cells were maintained in DMEM/10% FCS at a constant temperature of 37° C. in a humidified atmosphere of 95% air/5% CO2. Cells were plated in 1 ml DMEM/5% FCS at a density of 10,000 in 24 wells plates, and treated 24 hours (h) later with 50 μM or 75 μM FTS or with the vehicle (0.1% Me2SO). Forty-eight (48) h later the medium was replaced by a medium containing either 10 mM glucose or 5 mM glucose plus 5 mM 2DG. The FTS treated groups were replenished with the drug and the controls with 0.1% Me2SO. Following incubation for 24 or 48 h, as specified in each experiment, the cells were stained with Hoechst 33258 (1 μg/mL) to determine the extent of cell death; the cells were incubated with the reagent for 5 min and stained nuclei were visualized by a fluorescence microscope. Additionally, phase contrast images were taken. All experiments were performed and repeated at least four times. Data were collected by imaging each well then analyzed as follows: the total number of cells was calculated of the phase contrast images and the number of dead cells was calculated of the fluorescence images. The percentage of Hoechst stained dead cells ([dead cells/total number of cells]×100) was calculated and presented as means±SD.

GBM cells = conditions: reported (Blum 2005; Yaari 2005); cited from earlier work
Mia Paca cells = conditions: cited from earlier work
panc-1 cells = conditions: cited from earlier work
[13] = previously shown (Kloog and Cox 2000)

## OCC1OC(O)CC(O)C1O [2DG, 2-deoxy-D-glucose, reference compound]
[1]; 2DG alone, compared with FTS
  decrease in cell number: decrease in cell number, but to a lower extent
[2]
  cell death above the levels observed in the controls: induced death
[3]
  cell death above the levels observed in the controls: did not cause a significant increase in death
[4]
  cell death above the levels observed in the controls: did not cause a significant increase in death
[5]
  cell death: no significant increase in cell death
[6]; 2DG alone, compared with FTS
  decrease in cell number: decrease in cell number, but to a lower extent
[7]; 2DG alone, compared with FTS
  decrease in cell number: decrease in cell number, but to a lower extent
[8]
  total cell number: induced a decrease in total cell number
[9]; 2DG alone, compared with FTS
  decrease in cell number: decrease in cell number, but to a lower extent
[10]
  total cell number: induced a decrease in total cell number
[11]
  cell death: no significant increase in cell death
[12]; 2DG (5 mM) combined with equimolar glucose, cell death similar to controls (3%)
  cell survival: did not affect cell survival
[12]; 2DG alone (5 mM glucose plus 5 mM 2DG)
  percentage of dead cells: 3%

## CC(C)=CCC/C(C)=C/CC/C(C)=C/CSc1ccccc1C(=O)O [FTS, farnesylthiosalicylic acid]
GBM cells
  growth arrest and cell death: induce both growth arrest and cell death
[1]; 75 μM FTS alone
  decrease in the total number of cells: ~2 fold
Mia Paca cells; FTS alone
  cell death: did not induce death
Mia Paca cells; [13]
  anchorage-dependent and anchorage-independent growth: inhibit anchorage-dependent and anchorage-independent growth
[2]
  cell death above the levels observed in the controls: induced death
[3]
  cell death above the levels observed in the controls: did not cause a significant increase in death
[4]
  cell death above the levels observed in the controls: did not cause a significant increase in death
[5]
  cell death: no significant increase in cell death
[6]; 75 μM FTS alone
  decrease in the total number of cells: ~2 fold
[7]; 75 μM FTS alone
  decrease in the total number of cells: ~2 fold
[8]
  total cell number: induced a decrease in total cell number
[9]; 75 μM FTS alone
  decrease in cell number: ~2 fold
panc-1 cells; FTS alone
  cell death: did not induce death
panc-1 cells; [13]
  anchorage-dependent and anchorage-independent growth: inhibit anchorage-dependent and anchorage-independent growth
[10]
  total cell number: induced a decrease in total cell number
[11]
  cell death: no significant increase in cell death
[12]; 50 μM FTS alone (10 mM glucose)
  percentage of dead cells: 4%
[12]; 75 μM FTS alone (10 mM glucose)
  percentage of dead cells: 7%

From patent US8278349B2, “Cancer treatment using FTS and 2-deoxyglucose” (Ramot at Tel-Aviv University Ltd., priority 2005, dated 2012)
